Patent publication US8703811B2, “Small molecule inhibitors of Plasmodium falciparum dihydroorotate dehydrogenase” (Genzyme Corporation, priority 2008, dated 2014)
≈ marks a conversion by molar mass, not a printed value. Like-named read-outs stand apart in the source and are kept apart here.

Tests used:
[1] = Solubility measurement; assay type: physicochemical
From the text: Many standard techniques are known in the art to establish the solubility of a compound in a particular solvent. The following description is one such technique that could be used to determine the solubility: Equilibrium solubility measurements start with the solid form of the compound (crystalline form preferred). The powder is physically mixed with an aqueous buffer (defined pH) until equilibrium is reached. Either centrifugation or filtration can be used to separate the solution from the remaining solid. The amount dissolved in the solution can be determined by any one of many known methods including HPLC or UV/Vis spectroscopic techniques.

[2] = Log D measurement; assay type: physicochemical
From the text: Many standard techniques are known in the art to establish the distribution coefficient of a compound between two particular solvents. The following description is one such technique that could be used to determine the distribution coefficient: The shake-flask method, which consists of dissolving some of the compound in a volume of octanol and water, then physically shaking the mixture and allowing the two solvents to fully separate. The concentration of the compound in each solvent is then measured. The most common method of measuring the distribution of the solute is by HPLC or UV/Vis spectroscopic techniques.

[3] = system: P. falciparum Dd2; experiment: Inhibition of in vitro P. falciparum culture, [3H]-hypoxanthine uptake, Dd2; assay type: cell-based; conditions: for EC50: read-out: Dd2 EC50; for IC50: read-out: Dd2 IC50
Procedure, shortened: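 Parasite growth inhibition measured as relative reduction of [3H]-hypoxanthine uptake in in vitro cultures. Values from non-linear regression fit, using relative growth velocity in place of product-formation rate.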

[4] = target: pfDHODH (Plasmodium falciparum (isolate 3D7), UniProt Q08210); experiment: DHODH chromogen reduction (DCIP) assay, pfDHODH; assay type: biochemical, P. falciparum; conditions: for IC50: read-out: pfDHODH IC50
pfDHODH, sequence (Q08210 159-565 limits assumed): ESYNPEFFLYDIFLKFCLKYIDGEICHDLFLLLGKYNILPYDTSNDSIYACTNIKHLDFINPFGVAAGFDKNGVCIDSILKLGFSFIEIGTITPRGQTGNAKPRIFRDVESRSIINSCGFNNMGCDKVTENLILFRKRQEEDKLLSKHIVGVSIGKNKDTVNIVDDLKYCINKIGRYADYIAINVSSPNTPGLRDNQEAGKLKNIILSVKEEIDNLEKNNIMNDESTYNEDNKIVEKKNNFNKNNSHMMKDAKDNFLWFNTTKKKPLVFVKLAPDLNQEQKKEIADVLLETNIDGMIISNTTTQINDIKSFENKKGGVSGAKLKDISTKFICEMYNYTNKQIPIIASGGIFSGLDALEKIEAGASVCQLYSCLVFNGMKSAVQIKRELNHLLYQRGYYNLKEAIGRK

[5] = Renal Proximal Tubule Epithelial Cell Toxicity Screen; assay type: cell-based
Method: The Renal Proximal Tubule Epithelial Cell Toxicity Screen is designed to determine whether compound mixtures, breakouts or single compounds are toxic to normal renal epithelial cells. […] Basically, the screen consists of plating renal epithelial cells, exposing them to the desired compound(s) for 4 days and measuring cell viability using the Alamar Blue reagent.
Harvested Kidney Epithelial cells were diluted in REGM to 1.5×10^4 cells/mL. […] NOTE: One plate, the T=0 plate required that 20-30 wells be seeded, and all the other plates had 96 wells seeded. Plates were incubated in 37° C./5% CO2 incubator for 24 hours.
(§1) Alamar Blue solution (25 μL/well) was added to the T=0 plate and mixed. The plate was incubated in 37° C./5% CO2 incubator for 4 hours, mixed and then the fluorescence was measured. 10% Tween 20 stock (10 μL) was added into rows A-D in column 1 (positive control). DMSO (0.5 μL) was added into column 2 (negative control). Compounds were placed into designated wells for desired testing as follows:
Plates were mixed on the shaker, and then incubated in 37° C./5% CO2 incubator for 96 hours. Day 6:
Alamar Blue solution (25 μL/well) was added to the plates containing the compounds and mixed. Plates were incubated in 37° C./5% CO2 incubator for 4 hours, mixed and the fluorescence was measured.

[6] = Normal Human Dermal Fibroblast Toxicity Screen; assay type: cell-based; conditions: human, normal human dermal fibroblasts; four days exposure, Alamar Blue; read-out: Dermal Fibroblast LC50
Method: The Normal Human Dermal Fibroblast Toxicity Screen Protocol is designed to determine whether compound mixtures, breakouts or single compounds are toxic to normal human dermal fibroblasts. The screen involves plating the dermal fibroblasts and then exposing them to the compounds for four days, then cell viability is measured using Alamar Blue reagent.
Harvested Dermal Fibroblast cells were diluted in Growth Media to 0.25 to 0.3×10^5 cells/mL. […] NOTE: One plate, the T=0 plate required that 20-30 wells be seeded and all the other plates had 96 wells seeded. Plates were incubated in 37° C./5% CO2 incubator for 24 hours.
as §1, with “the plate was agitated.” for “mixed.”, “plate” for “plate was incubated”, “incubator was incubated” for “incubator”, “3” for “4”, “agitated the” for “mixed”, “and” for “and then”
Plates were mixed on the shaker, then incubated in 37° C./5% CO2 incubator for 96 hours.
Alamar Blue solution (25 μL/well) was added to the plates containing the compounds, and the plates were agitated. The plates were incubated in 37° C./5% CO2 incubator for 3 hours, agitated and then the fluorescence was measured.

[7] = Table 3, [3H]-hypoxanthine uptake
[8] = Table 3, DCIP assay, 20 nM pfDHODH
[9] = aqueous buffer, thermodynamic from solid, read-out: Solubility
[10] = Plasmodium falciparum, DD2, Table 2b
[11] = Plasmodium falciparum, DD2, Table 3, [3H]-hypoxanthine uptake

Row | Compound | solubility [1] [µg/mL] | logD [2] | EC50 ([3]; Table 2b) [nM] | IC50 [3, 7] [nM] | IC50 ([4]; Table 2b) [nM] | IC50 [4, 8] [nM] | solubility [1, 9] [µg/mL] | logD ([2]; octanol/water, read-out: LogD) | CC50 at 96 h [5] [nM] | IC50 ([3]; Plasmodium falciparum, DD2, Erythrocyte, [3H]-hypoxanthine uptake by parasite infected erythrocytes) [nM] | EC50 [3, 10] [nM] | IC50 [3, 11] [nM] | inhibition at 50 µM ([4]; 50 μM inhibitor, 200 μM L-DHO, 100 μM CoQD, 60 μM DCIP, read-out: % Inhibition of Product Formation Rate with 50 μM Inhibitor, CoQD) [%] | IC50 ([4]; DCIP assay, 200 μM L-DHO, 18 μM CoQD, 100 μM DCIP, 20 nM enzyme) [nM] | CC50 at 96 h [6] [nM]
1 | 5-(1H-indol-1-yl)-N-propylthiophene-2-carboxamide [Compound 7] | 1 | >3.5 | 1030 | 230 | 459 | 460 | – | – | – | – | – | – | – | – | –
2 | CCCNC(=O)c1ccc(-n2c(C)cc3ccccc32)s1 [Compound 1, 5-(2-methyl-1H-indol-1-yl)-N-propylthiophene-2-carboxamide] | – | – | – | – | 64 | 70 | 0.9 (≈ 3.02 µM) | > 3.5 | > 62000 | 290 | 493 | 250 | 104 | 42 ± 7 | > 62000
3 | CCCNC(=O)c1ccc(-n2cnc3ccccc32)s1 [Compound 11, 5-(1H-benzo[d]imidazol-1-yl)-N-propylthiophene-2-carboxamide] | – | – | – | 1250 | 703 | 700 | > 30 | 3.3 | > 62000 | – | 1100 | 955 | – | – | > 62000
4 | CCCNC(=O)c1ccc(-n2c(C)nc3ccccc32)s1 [Compound 12, 5-(2-methyl-1H-benzo[d]imidazol-1-yl)-N-propylthiophene-2-carboxamide] | – | – | – | – | 172 | 170 | > 30 | 3.4 | > 62000 | – | – | – | – | – | > 62000
